Counter-ions that a name gives are not always drawn.

One test deals with Lewis strain laboratory rats. Nature of the test: In vivo alleviation of inflammation: polyarthritis (adjuvant, Mycobacterium butyricum) in rats, inhibition of paw volume increase. The settings on record: p.o., rat. The method, then: Polyarthritis was induced in Lewis strain laboratory rats (weight=about 200 grams) by injection of a suspension of Mycobacterium butyricum in mineral oil into the subplantar tissue of the mammal's hind paws. On day 10 after the injection, the rats were assigned to groups, and paw volumes and body weights were recorded. Paw volumes of the contralateral, uninjected hind paw were determined by mercury plethylsmography. Per oral (p.o.) dosing began and continued for five consecutive days thereafter. On day 14 after the initial injection, approximately four hours after the final dose was administered, paw volumes and body weights were recorded and quantitated.
Anti-inflammatory activity of the substituted pyrazole compounds is expressed as the percent inhibition of paw volume increase.
`COc1ccc(-n2nc(CCC(=O)O)cc2-c2ccc(Cl)cc2)cc1` [Compound 12, 3-[5-(4-Chlorophenyl)-1-(4-methoxyphenyl)-3-pyrazolyl] propionic acid]: the “ED50 (effective dose to obtain a 50% inhibition of inflammation)” value is given as 5.2 mpk.

The test is the same for the next values; noted with them: po, 336 h; 9 mpk p.o., rat; read-out: % INH. p.o. (percentage inhibition of pad swelling).
As for `COc1ccc(-n2nc(CCCN(O)S(C)(=O)=O)cc2-c2ccc(Cl)cc2)cc1` [Compound 156], the inhibition in vivo at 9 mg/kg worked out at 34%.

The same test, now with this note: po, 336 h; 10 mpk p.o., rat; read-out: % INH. p.o. (percentage inhibition of pad swelling).
Turning to `COc1ccc(-n2nc(CCC(=O)N(C)O)cc2-c2ccccc2C)cc1` [Compound 118], the inhibition in vivo at 10 mg/kg came to 6%.
The same measure, in the same setting: in the case of `COc1ccc(-n2nc(CCC(=O)O)cc2-c2ccccc2C)cc1` [Compound 109] it was 1%; in that of `CCN(CC)C(=O)CCC(=O)ON(C)C(=O)CCc1cc(-c2ccc(Cl)cc2)n(-c2ccc(OC)cc2)n1` [Compound 137], 54%; in that of `CCc1ccc(-c2cc(CCC(=O)O)nn2-c2ccc(OC)cc2)cc1` [Compound 110], 51%.
`COc1ccc(-n2nc(CCC(=O)N(C)OC(=O)CCC(=O)N3CCOCC3)cc2-c2ccc(Cl)cc2)cc1` [Compound 136]: the inhibition in vivo at 10 mg/kg stood at 38%.
Still for that read-out and setting: to `CCCCCCCCN(O)C(=O)CCc1cc(-c2ccc(Cl)cc2)n(-c2ccc(OC)cc2)n1` [Compound 146] belongs 29%.
Still for that read-out and setting: to `COc1ccc(-n2nc(CCC(=O)O)cc2-c2ccc(C)cc2)cc1` [Compound 105] belongs 87%.
Still for that read-out and setting: to `COc1ccc(-n2nc(CCC(=O)N(C)O)cc2-c2ccc(Cl)cc2)cc1` [Compound 3a, 3-[5-(4-Chlorophenyl)-1-(4-methoxyphenyl)-3-pyrazolyl] -N-hydroxy-N-methylpropanamide sodium salt monohydrate] belongs 65%.

Still in this test, the particulars now being: po, 336 h; 15 mpk p.o., rat; read-out: % INH. p.o. (percentage inhibition of pad swelling).
As for `CCN(O)C(=O)CCc1cc(-c2ccc(Cl)cc2)n(-c2ccc(OC)cc2)n1` [Compound 83, 3-[5-(4-chlorophenyl)-1-(4-methoxyphenyl)-3-pyrazolyl]-N-ethyl-N-hydroxypropanamide], the inhibition in vivo at 15 mg/kg was 42%.
`COc1ccc(-n2nc(CCC(=O)NCCO)cc2-c2ccc(Cl)cc2)cc1` [Compound 65]: the inhibition in vivo at 15 mg/kg came to 21%.
The same measure, in the same setting: in the case of `COc1ccc(-n2nc(CCCOCC(=O)O)cc2-c2ccc(Cl)cc2)cc1` [Compound 93] it was 17%.

Staying with this test, now noted: po, 336 h; 25 mpk p.o., rat; read-out: % INH. p.o. (percentage inhibition of pad swelling).
For the compound `COc1ccc(-n2nc(CCCNO)cc2-c2ccc(Cl)cc2)cc1` [Compound 151, N-[3-[5-(4-Chlorophenyl)-1-(4-methoxyphenyl)-3-pyrazolyl]propyl]hydroxyl-amine], the inhibition in vivo at 25 mg/kg worked out at 42%.
The same measure, in the same setting: in the case of `COc1ccc(-n2nc(CCC(=O)N(C)OC)cc2-c2ccc(Cl)cc2)cc1` [Compound 44] it was 69%; in that of `COc1ccc(-n2nc(CCC(=O)NO)cc2-c2ccc(Cl)cc2)cc1` [Compound 29, 3-[5-(4-Chlorophenyl)-1-(4-methoxyphenyl)-3-pyrazolyl]-N-hydroxypropanamide], 91%; in that of `COc1ccc(-n2nc(CCC(=O)ONC(C)(C)C)cc2-c2ccc(Cl)cc2)cc1` [Compound 57, 0-[2-[5-(4-Chlorophenyl)-1-(4-methoxyphenyl)-3-pyrazolyl]ethylcarbonyl]-N-tert-butylhydroxylamine], 87%.
On the same count and under the same terms, in the case of `O=C(O)CCc1cc(-c2ccc(Cl)cc2)n(-c2ccccc2)n1` [Compound 17, 3-[5-(4-Chlorophenyl)-1-phenyl-3-pyrazolyl]propionic acid] it was 50%; in that of `COc1ccc(-n2nc(CCCO)cc2-c2ccc(-c3ccccc3)cc2)cc1` [Compound 54], 36%.

The test is the same for the next values; noted with them: po, 336 h; 50 mpk p.o., rat; read-out: % INH. p.o. (percentage inhibition of pad swelling).
On to `CC(=O)OCCCc1cc(-c2ccc(Cl)cc2)n(-c2ccccc2)n1` [Compound 7, 3-(3-Acetoxypropyl)-5-(4-chlorophenyl)-1-phenylpyrazole], for which the inhibition in vivo at 50 mg/kg is 54%.
As for `CS(=O)(=O)c1ccc(-n2nc(CCCO)cc2-c2ccc(Cl)cc2)cc1` [Compound 36], the inhibition in vivo at 50 mg/kg came to 40%.
On the same count and under the same terms, in the case of `OCCCc1cc(-c2ccc(Cl)cc2)n(-c2ccccc2)n1` [Compound 1] it was 62%.

The values are drawn from patent US5164381A, “Pharmacologically active 1,5-diaryl-3-substituted pyrazoles and method for synthesizing the same” (Ortho Pharmaceutical Corporation, priority 1991, dated 1992).
